Experimental data published in patent publication US20230227466A1, “SUBSTITUTED THIENOPYRIMIDINES THAT INTERACT WITH THE RAS SUPERFAMILY FOR THE TREATMENT OF CANCERS, INFLAMMATORY DISEASES, RASOPATHIES, AND FIBROTIC DISEASE” (SHY Therapeutics, LLC, priority 2020, published 2023).
Where two headings read alike, the source gives them in different places.

Columns and labels:
[1] = target: T1, KRas G12C mutant (Homo sapiens, UniProt P01116, G12C); assay: Ras GTP binding domain inhibition assay (labeled-GTP competition, cell-free)
T1 construct: made in house
Source text: (§1) This is a competitive binding assay. It involves the immobilization of a protein on solid phase, interaction with a small molecule drug candidate, and then competitive binding with a labeled native GTP or GDP ligand.
(§2) In theory, the assay is suitable for use with any GTP or GDP binding protein.
(§3) The following method was developed as specific assay for the following proteins: KRas wild type, KRas Q61H mutant, KRas G12C mutant, KRas G12D mutant, Rac-1, and Rho-A.
(§4) The small GTPases proteins: KRas wild type. KRas Q61H mutant, KRas G12C mutant, KRas G12D mutants, Rac-1, and Rho-A were expressed as His-tagged proteins. In addition, the Guanosine nucleotide Exchange Factor (GEF) Sos protein (residues 556-1049) was expressed as a His-tagged protein. In cells, the guanine nucleotide exchange factor Sos protein promotes activation of Ras proteins by stimulating an exchange of GDP for GTP. The inclusion of Sos to the Ras GTP binding domain inhibition assay may be considered as an alternative representation of physiological cellular conditions for evaluating the inhibitory activity of some of the tested small molecules.
(§5) For the assay, all purified small GTPases proteins were diluted in Buffer-I or Buffer-II to a final concentration of 10-30 μg/mL. 200 μL of each diluted protein was added to a nickel-coated 96-well plate and incubated overnight at 4° C. Then the protein solution was discarded and 200 μL of Buffer-I or Buffer-II was added to each well in the presence of 1% DMSO. Compounds to be tested were added to the protein-coated wells at final concentration of 20 μM, and incubated for 3 hours at room temperature with and without 10-30 μg/mL of Sos added to the final hour of the incubation. When performing IC50 measurements a serial dilution of all tested concentrations was added. Then Cy3-GTP or Cy5-GTP was added to each well to a final concentration of 100 nM. The labeled GTP was incubated for 45 minutes at room temperature. Following GTP incubation, wells were washed 3× in Buffer-I or Buffer-II and 200 μL of Buffer-I or Buffer-II was added to each well. Following washes, the amount of bound labeled-GTP was measured using a SpectraMax M3 (Molecular Devices).

[2] = target: T2, KRas G12D mutant (Homo sapiens, UniProt P01116, G12D); assay: as above
T2 construct: made in house
Source text: as §1, §2, §3, §4, §5

[3] = target: T3, KRas Q61H mutant (Homo sapiens, UniProt P01116, Q61H); assay: as above
T3 construct: made in house
Source text: as §1, §2, §3, §4, §5

[4] = test system: MIA-PaCa-2 pancreatic cancer cell line (KRAS G12C); assay: Cell proliferation assay (CellTiter 96 Aqueous One); type: cell-based; details: Homo sapiens
Protocol: Cell lines: Human tumor-derived cell lines were purchased from American Type Culture Collection. Human tumor-derived pancreatic cancer cell line MIA-PACA2 (having a KRAS G12C mutation) and Panc-1 (having a KRAS G12D mutation), and Human non-small cell lung cancer (NSCLC) cell line A549 (having a KRAS G12S mutation) were grown in complete DMEM-High Glucose. Human colon cancer cell line SW-620 (having a KRAS G12V mutation) was grown in RPMI. All cell lines were supplemented with penicillin (100 U/mL), streptomycin (100 μg/mL), and 10% heat-inactivated FBS at 37° C. in a humidified incubator with 5% CO2.
Method: Cells were plated at 2000 to 5000 cells/well density in 96-wells plate and cultured overnight. Small molecules to be tested were added to the cells in the final concentration of 10 μM in the presence of 0.3% DMSO and 10% FBS, and incubated for 2-4 days at 37° C. in a humidified incubator with 5% CO2. For IC50 value determination, serial dilutions of compounds were added to cells under the same conditions.
Assay: At the end of the incubation period, cell viability was measured using the CellTiter 96® Aqueous One Solution Cell Proliferation Assay according to manufacturer specifications (Promega, Madison, Wis.). The percentage of small molecules inhibition of cellular proliferation was calculated from raw data.

[5] = target: T4, Rho-A (Homo sapiens, UniProt P61586); assay: Ras GTP binding domain inhibition assay (labeled-GTP competition, cell-free); parameters: made in house
Source text: as §1, §2, §3, §4, §5

[6] = target: T5, KRas wild type (Homo sapiens, UniProt P01116); assay: as above; parameters: made in house
Source text: as §1, §2, §3, §4, §5

[7] = target: T6, Rac-1 (Homo sapiens, UniProt P63000); assay: as above; parameters: made in house
Source text: as §1, §2, §3, §4, §5

[8] = target: GTP binding domain of Ras (Homo sapiens, UniProt P01112); details: literature (Feuerstein 1987; John 1990); cited from earlier work
[9] = target: T4, Rho-A; assay: MicroScale Thermophoresis (MST) GTP affinity; details: read-out: MST GTP affinity for binding domain
Source text: (§6) As disclosed in International Application No. PCT/US2018/038613 and U.S. patent application Ser. No. 16/013,872, the affinity of GTP for the GTP binding domain of K-Ras utilizing a Scintillation Proximity Assay (SPA) and MicroScale Thermophoresis (MST) has been measured. These methods were not available when Wittinghofer and colleagues undertook their studies.
(§7) This therefore led to the novel, unanticipated conclusion that compounds such as small molecules could be discovered that would bind to a Ras GTP binding domain and compete with the binding of GTP to Ras.
(§8) See Khawaja et al., “Scintillation proximity assay in lead discovery”, Expert Opin. Drug Discov., 2008 November; 3(11):1267-80 regarding SPA procedures. See the following references regarding MST technology: Wienken et al., Nature Communications (2010), Protein binding assays in biological liquids using MicroScale Thermophoresis; Jerabek-Willemsen et al., ASSAY and Drug Development Technologies (2011), Molecular interaction studies using MicroScale Thermophoresis; Lin et al., Cell (2012), Inhibition of basal FGF receptor signaling by dimeric Grb2; Seidel et al., Angewandte Chemie (2012), Label-Free MicroScale Thermophoresis discriminates sites and affinity of protein-ligand binding; Seidel et al., Methods (2012), MicroScale Thermophoresis quantifies biomolecular interactions under previously challenging conditions; Parker & Newstead, Nature (2014), Molecular basis of nitrate uptake by the plant nitrate transporter NRT1.1; and Jerabek-Willemsen et al., Journal of Molecular Structure (2014), MicroScale Thermophoresis: Interaction analysis and beyond.

[10] = target: T5, KRas wild type; assay: MicroScale Thermophoresis (MST) GTP affinity; details: read-out: MST GTP affinity for binding domain
Source text: as §6, §7, §8

[11] = target: T6, Rac-1; assay: MicroScale Thermophoresis (MST) GTP affinity; details: read-out: MST GTP affinity for binding domain
Source text: as §6, §7, §8

[12] = target: T7, K-Ras (Q61H) (Homo sapiens, UniProt P01116, Q61H); assay: MicroScale Thermophoresis (MST) GTP affinity; details: read-out: MST GTP affinity for binding domain
Source text: as §6, §7, §8

[13] = target: T8, K-Ras (G12D) (Homo sapiens, UniProt P01116, G12D); assay: MicroScale Thermophoresis (MST) GTP affinity; details: read-out: MST GTP affinity for binding domain
Source text: as §6, §7, §8

[14] = target: T9, K-Ras (G12C) (Homo sapiens, UniProt P01116, G12C); assay: MicroScale Thermophoresis (MST) GTP affinity; details: read-out: MST GTP affinity for binding domain
Source text: as §6, §7, §8

[15] = target: Rac-1 and Rho-A; assay: SPA and MST studies, GTP affinity for Rho subfamily members; details: read-out: affinity of GTP for the binding domain of Rac-1 and Rho-A members of the Rho subfamily
Source text: as §7, §8

[16] = target: K-Ras GTP binding domain (wild type and mutant K-Ras); assay: SPA and MST studies, GTP affinity across K-Ras forms
Source text: as §7, §8

[17] = target: T6, Rac-1; assay: Scintillation Proximity Assay (SPA) GTP affinity; details: read-out: SPA GTP affinity for binding domain
[18] = target: T5, KRas wild type; assay: Scintillation Proximity Assay (SPA) GTP affinity; details: read-out: SPA GTP affinity for binding domain
Source text: as §6, §7, §8

[19] = target: T7, K-Ras (Q61H); assay: Scintillation Proximity Assay (SPA) GTP affinity; details: read-out: SPA GTP affinity for binding domain
Source text: as §6, §7, §8

[20] = target: T8, K-Ras (G12D); assay: Scintillation Proximity Assay (SPA) GTP affinity; details: read-out: SPA GTP affinity for binding domain
Source text: as §6, §7, §8

[21] = target: T9, K-Ras (G12C); assay: Scintillation Proximity Assay (SPA) GTP affinity; details: read-out: SPA GTP affinity for binding domain
Source text: as §6, §7, §8

[22] = target: T4, Rho-A; assay: Scintillation Proximity Assay (SPA) GTP affinity; details: read-out: SPA GTP affinity for binding domain
[23] = with SOS, read-out: KRas G12C mutant + SOS: % inh.
[24] = without SOS, read-out: KRas G12C mutant: % inh.
[25] = with SOS, read-out: KRas G12D mutant + SOS: % inh.
[26] = without SOS, read-out: KRas G12D mutant: % inh.
[27] = with SOS, read-out: KRas Q61H mutant + SOS: % inh.
[28] = without SOS, read-out: KRas Q61H mutant: % inh.
[29] = without SOS, read-out: Rho-A: % inh.
[30] = with SOS, read-out: KRas wild type + SOS: % inh.
[31] = without SOS, read-out: KRas wild type: % inh.
[32] = without SOS, read-out: Rac-1: % inh.

| Compound | inhibition at 20 µM [1, 23] [%] | inhibition at 20 µM [1, 24] [%] | inhibition at 20 µM [2, 25] [%] | inhibition at 20 µM [2, 26] [%] | inhibition at 20 µM [3, 27] [%] | inhibition at 20 µM [3, 28] [%] | inhibition at 20 µM [5, 29] [%] | inhibition at 20 µM [6, 30] [%] | inhibition at 20 µM [6, 31] [%] | inhibition at 20 µM [7, 32] [%] | affinity for the GTP binding domain of Ras [8] | also measured |
| --- | --- | --- | --- | --- | --- | --- | --- | --- | --- | --- | --- | --- |
| Oc1nc(-c2ccccn2)nc2c(-c3ncccc3F)csc12 [Compound 27, 7-(3-Fluoropyridin-2-yl)-2-(pyridin-2-yl)thieno[3,2-d]pyrimidin-4-ol] | 76 to 100 | 51 to 75 | 76 to 100 | 51 to 75 | 76 to 100 | 51 to 75 | 76 to 100 | 76 to 100 | 76 to 100 | 76 to 100 | – | IC50 ([3]; with SOS): 1 to 4.99 µM; IC50 ([4]; MIA PaCa-2, MIA PaCa-2): 1 to 4.99 µM; inhibition at 10 µM ([4]; 10 μM, MIA PaCa-2, read-out: % inh cell proliferation (10 μM) in MIA PaCa-2): 76 to 100%; inhibition at 20 µM ([5]; with SOS, read-out: Rho-A + SOS: % inh.): 76 to 100%; inhibition at 20 µM ([7]; with SOS, read-out: Rac-1 + SOS: % inh.): 76 to 100% |
| Oc1nc(-c2ccc3[nH]ncc3n2)nc2c(-c3ccccn3)csc12 [Compound 93, 2-(1H-Pyrazolo[4,3-b]pyridin-5-yl)-7-(pyridin-2-yl)thieno[3,2-d]pyrimidin-4-ol] | 1 to 25 | 26 to 50 | 1 to 25 | 26 to 50 | 1 to 25 | 1 to 25 | 51 to 75 | 0 | 26 to 50 | 1 to 25 | – | – |
| Nc1nc2c(ncn2[C@@H]2O[C@H](COP(=O)(O)OP(=O)(O)O)[C@@H](O)[C@H]2O)c(=O)[nH]1 [GDP] | – | – | – | – | – | – | – | – | – | – | single to double digit picomolar | – |
| Nc1nc2c(ncn2[C@@H]2O[C@H](COP(=O)(O)OP(=O)(O)OP(=O)(O)O)[C@@H](O)[C@H]2O)c(=O)[nH]1 [GTP] | – | – | – | – | – | – | – | – | – | – | single to double digit picomolar | Kd [9]: 0.13 ± 0.005 µM; Kd [10]: 0.463 ± 0.002 µM; Kd [11]: 0.166 ± 0.01 µM; Kd [12]: 0.157 ± 0.021 µM; Kd [13]: 0.244 ± 0.012 µM; Kd [14]: 0.207 ± 0.046 µM; Kd [15]: 0.12 to 0.17 µM; Kd [16]: 0.1 to 0.465 µM; Kd [17]: 0.151 ± 0.014 µM; Kd [18]: 0.243 ± 0.015 µM; Kd [19]: 0.118 ± 0.011 µM; Kd [20]: 0.27 ± 0.015 µM; Kd [21]: 0.258 ± 0.018 µM; Kd [22]: 0.129 ± 0.012 µM |
